Assay results from ChEMBL document CHEMBL1833905, “Design, synthesis and primary activity assay of tripeptidomimetics as histone deacetylase inhibitors with linear linker and branched cap group” (Eur J Med Chem, 2011).

Tests used:
[1] = molecular target: T1, Histone deacetylase 8 (Homo sapiens, UniProt Q9BY41); test: Inhibition of human HDAC8 expressed in Escherichia coli using Boc-Lys (acetyl)-AMC as substrate treated for 5 mins before substrate addition measured after 30 mins by fluorescence assay
T1 sequence (Q9BY41 whole entry): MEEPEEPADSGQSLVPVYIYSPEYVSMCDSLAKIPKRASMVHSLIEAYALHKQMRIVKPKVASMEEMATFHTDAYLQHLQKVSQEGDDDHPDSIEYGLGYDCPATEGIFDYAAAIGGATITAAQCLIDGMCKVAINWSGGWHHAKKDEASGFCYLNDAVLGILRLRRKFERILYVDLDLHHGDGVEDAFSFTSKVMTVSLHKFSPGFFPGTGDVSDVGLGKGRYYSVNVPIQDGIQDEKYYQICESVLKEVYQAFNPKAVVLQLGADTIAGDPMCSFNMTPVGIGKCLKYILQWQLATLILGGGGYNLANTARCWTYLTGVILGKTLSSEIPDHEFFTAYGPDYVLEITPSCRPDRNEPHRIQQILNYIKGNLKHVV

[2] = molecular target: Histone deacetylase 1 (Homo sapiens, UniProt Q13547); test: Inhibition of human HDAC1 expressed in Escherichia coli using fluorogenic substrate treated for 5 mins before substrate addition measured after 30 mins by fluorescence assay
Chain of Histone deacetylase 1 (Q13547 whole entry): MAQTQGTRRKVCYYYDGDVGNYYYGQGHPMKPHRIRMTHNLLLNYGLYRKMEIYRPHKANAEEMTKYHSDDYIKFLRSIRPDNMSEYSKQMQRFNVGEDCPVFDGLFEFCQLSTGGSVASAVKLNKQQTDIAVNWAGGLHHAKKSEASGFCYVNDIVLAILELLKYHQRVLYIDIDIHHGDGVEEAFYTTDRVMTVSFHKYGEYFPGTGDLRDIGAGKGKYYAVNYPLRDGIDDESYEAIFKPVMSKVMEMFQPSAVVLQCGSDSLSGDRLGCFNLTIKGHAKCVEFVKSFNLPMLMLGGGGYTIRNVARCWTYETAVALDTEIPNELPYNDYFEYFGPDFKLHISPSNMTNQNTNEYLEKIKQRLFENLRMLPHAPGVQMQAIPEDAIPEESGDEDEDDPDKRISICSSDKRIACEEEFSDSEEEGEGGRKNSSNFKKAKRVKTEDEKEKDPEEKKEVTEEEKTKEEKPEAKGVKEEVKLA

[3] = system: MCF7; test: Antiproliferative activity against human MCF7 cells after 48 hrs by MTT assay; format: functional, cell-based; conditions: MCF7, 48 h
[4] = system: MDA-MB-231; test: Antiproliferative activity against human MDA-MB-231 cells after 48 hrs by MTT assay; format: functional, cell-based; conditions: MDA-MB-231, 48 h
[5] = system: PC-3; test: cells; conditions: Homo sapiens, PC-3, 48 h

Row | IC50 [1] [nM] | IC50 [2] [nM] | IC50 [3] [nM] | IC50 [4] [nM] | IC50 [5] [nM] | SMILES
1 | 2590 |  |  |  |  | O=C(CCCCCNC(=O)[C@@H]1CC2(CN1)SCCS2)NO
2 | 21 | 450 | 21600 | 30500 | 24700 | CC(C)(C)OC(=O)N[C@@H](Cc1ccc(O)cc1)C(=O)N1CC2(C[C@H]1C(=O)NCCCCCC(=O)NO)SCCS2
3 |  | 680 | 3510 | 3500 | 4300 | CC(C)C[C@H](NC(=O)OC(C)(C)C)C(=O)N1CC2(C[C@H]1C(=O)NCCCCCC(=O)NO)SCCS2
4 | 840 |  |  |  |  | N[C@@H](Cc1ccccc1)C(=O)N1CC2(C[C@H]1C(=O)NCCCCCC(=O)NO)SCCS2
5 | 960 |  |  |  |  | CC(C)(C)OC(=O)NCCCC(=O)N1CC2(C[C@H]1C(=O)NCCCCCC(=O)NO)SCCS2

The remaining lines, values behind:

Row | SMILES | IC50 [1] [nM] | IC50 [2] [nM] | IC50 [3] [nM] | IC50 [4] [nM] | IC50 [5] [nM]
6 | CC(C)(C)OC(=O)N[C@@H](Cc1c[nH]c2ccccc12)C(=O)N1CC2(C[C@H]1C(=O)NCCCCCC(=O)NO)SCCS2 | 140 | 750 | 9160 | 5830 | 13700
7 | NCCC(=O)N1CC2(C[C@H]1C(=O)NCCCCCC(=O)NO)SCCS2 | 1930 |  |  |  | 
8 | N[C@@H](Cc1c[nH]c2ccccc12)C(=O)N1CC2(C[C@H]1C(=O)NCCCCCC(=O)NO)SCCS2 | 690 |  |  |  | 
9 | CC(C)(C)OC(=O)NCCCC[C@H](NC(=O)OC(C)(C)C)C(=O)N1CC2(C[C@H]1C(=O)NCCCCCC(=O)NO)SCCS2 | 350 | 980 | 42500 | 12800 | 34600
10 | N[C@@H](Cc1ccc(O)cc1)C(=O)N1CC2(C[C@H]1C(=O)NCCCCCC(=O)NO)SCCS2 | 490 | 450 | > 100000 | > 100000 | > 100000
11 | CC(C)(C)OC(=O)N[C@@H](Cc1ccccc1)C(=O)N1CC2(C[C@H]1C(=O)NCCCCCC(=O)NO)SCCS2 | 35 | 980 | 7780 | 2790 | 12700
12 | O=C(CCCCCCC(=O)Nc1ccccc1)NO [VORINOSTAT] |  |  |  |  | 1980
13 | NCCCC[C@H](N)C(=O)N1CC2(C[C@H]1C(=O)NCCCCCC(=O)NO)SCCS2 | 4770 |  |  |  | 
